Results on one compound are retold here after patent publication US20050049299A1, “Selective inhibitors of stat-3 activation and uses thereof” (priority 2003, published 2005).

What all share (type): cell-based, human
The subject of test [1] is STAT3 phosphorylation. Kind of test: Phosphorylated STAT3 in HNSCC cells (immunocytochemistry, horseradish peroxidase stain). The settings on record: 50 μM, 2 hrs. As to the method:
(§1) MDA 1986LN, MDA 686LN and JMAR cells were incubated with either media alone or with curcumin (50 μM) for 2 hrs and then analyzed by immunocytochemistry using Alexa fluorochrome for the distribution of STAT3 (original magnification ×200). […] The same procedure as mentioned above was performed on the same cells and the p-STAT3 analyzed by immunocytochemistry using horse radish peroxidase stain (original magnification ×200).
To further confirm that curcumin inhibited STAT3 phosphorylation, the same curcumin-treated and untreated cells were analyzed for phosphorylated STAT3 by immunocytochemistry using horseradish peroxidase stain. […] These findings confirmed that curcumin inhibited STAT3 phosphorylation.

In test [2] the test system is STAT3 nuclear translocation. Kind of test: STAT3 distribution in HNSCC cells (immunocytochemistry, Alexa fluorochrome). The settings on record: MDA 1986LN, MDA 686LN and JMAR cells, 50 μM, 2 hrs. As to the method:
as §1
Since STAT3 retained in the cytoplasm under resting conditions and in the non-phosphorylated state translocates to nucleus when phosphorylated, the effect of curcumin on the distribution of STAT3 was examined. To accomplish this, curcumin-treated and untreated MDA 1986LN, MDA 686LN and JMAR cells were analyzed for distribution of STAT3 by immunocytochemistry using ALEXA fluorochrome.

Test [3] relates to multiple myeloma cells. Description: Proliferation of multiple myeloma cells, curcumin vs AG490 (data not shown). The settings on record: 100 μM, 24 hours (data not shown).
Test [4] concerns STAT3 phosphorylation. Description: IL-6-induced STAT3 phosphorylation in JMAR cells (Western blot). The protocol:
JMAR cells (2×10^6 cells) were treated with IL-6 (10 ng/ml) for the indicated time and whole cell extracts were prepared. These extracts (30 μg) were resolved on 7.5% SDS-PAGE, electrotransferred to a nitrocellulose membrane and probed for p-STAT3 (upper panel) and stripped and re-probed for STAT3 (lower panel). […] JMAR cells were pretreated with curcumin (50 μM) for indicated durations and stimulated with IL-6 (10 ng/ml) for 10 mins and whole cell extract prepared and probed as mentioned earlier.
JMAR cells were treated with IL-6 for different durations and the levels of p-STAT3 and STAT3 were examined. Treatment with IL-6 as early as 5 mins induced STAT3 phosphorylation in JMAR cells (FIG. 14A, upper panel). However, STAT3 levels were unaffected (FIG. 14A, lower panel).
Further, since IL-6 induced STAT3 phosphorylation in JMAR cells, the ability of curcumin to inhibit this STAT3 phosphorylation was also examined. JMAR cells were pretreated with curcumin for different durations and stimulated with IL-6 for 10 minutes. Both the status of p-STAT3 and STAT3 were determined in the whole cell extracts of these cells. Treatment with curcumin for as early as 30 minutes led to decline in the phosphorylation of STAT3 which declined further with increased exposure to curcumin. Exposure to curcumin for 2 hours inhibited STAT3 phosphorylation in JMAR cells (FIG. 14B, upper panel). The STAT3 levels were unaffected by this treatment (FIG. 14B, lower panel).
A general note: In western blotting, separated proteins are transferred to a membrane and probed.

Test [5] has as its system MDA 1986LN cells. Kind of test: Proliferation of MDA 1986LN cells (MTT assay). The protocol: MDA 1986LN cells (2×10^6 cells) were treated with indicated concentrations of AG490 for 8 h and whole extracts prepared. These whole-cell extracts (30 μg) were resolved on 7.5% SDS-PAGE, electrotransferred to a nitrocellulose membrane, probed for p-STAT3 (upper panel), striped and reprobed for STAT3 (middle panel) and β-actin (lower panel). […] The cells were treated with AG490 (100 μM) for the indicated durations and whole cell extracts prepared and analyzed as mentioned earlier. FIG. 15C compares the effect of curcumin and AG490 on proliferation of MDA 1986LN cells by MTT assay.
Further, the proliferation of MDA 1986LN cells when treated with curcumin was compared with AG490 treated cells by performing MTT assay.
On the technique in general: Formazan colour is commonly taken as a measure of viable cells.

Test [6] deals with STAT3 phosphorylation. Kind of test: IL-6-inducible STAT3 phosphorylation in RPMI 8226 cells (Western blot). The protocol:
FIGS. 3A-C show& that IL-6 induces STAT3 phosphorylation in human multiple myeloma RPMI 8226 cells and curcumin inhibits it. […] U266, RPMI 8226, MM.1S, MM.1R and OCl cells (2×10^6) were lysed, and 30 μg of whole-cell extracts were resolved on 7.5% SDS-PAGE, electrotransferred to a nitrocellulose membrane, and probed for phosphorylated-STAT3 (upper panel) and STAT3 (lower panel). […] Thirty micrograms of whole cell extracts were resolved on 7.5% SDS-PAGE, electrotransferred to a nitrocellulose membrane, and probed for the phosphorylated-STAT3 (upper panel) and stripped and reprobed for STAT3 (middle panel) and β-actin (lower panel).
For detection of STAT proteins, whole-cell extracts were prepared by lysing the curcumin-treated cells in lysis buffer (20 mM Tris, pH 7.4, 250 mM NaCl, 2 mM EDTA, pH 8.0, 0.1% Triton-X100, 0.01 mg/ml aprotinin, 0.005 mg/ml leupeptin, 0.4 mM PMSF, and 4 mM NaVO4). Lysates were then spun at 14000 rpm for 10 min to remove insoluble material, and resolved on a 7.5% gel. After electrophoresis, the proteins were electrotransferred to a nitrocellulose membrane, blocked with 5% nonfat milk, and probed with anti-STAT antibodies (1:1000) overnight at 4° C. The blot was washed, exposed to HRP-conjugated secondary antibodies for 1 h, and finally examined by chemiluminescence (ECL, Amersham Pharmacia Biotech. Arlington Heights, Ill.).
Since IL-6 is a growth factor for multiple myeloma and induces STAT3 phosphorylation (5, 6, 15), whether curcumin could inhibit IL-6-induced STAT3 phosphorylation was examined. […] IL-6 induced phosphorylation of STAT3 as early as 5 min and began to decline at 60 minutes (FIG. 3B). RPMI 8226 cells were then incubated with curcumin for different times and examined for IL-6-inducible STAT3 phosphorylation.
Exposure of cells to curcumin for 4 hours was sufficient to completely suppress IL-6-induced STAT3 phosphorylation. Curcumin alone had no effect on STAT3 phosphorylation in these cells (data not shown).

Where [7] appears, read: 50 μM curcumin, IL-6 10 ng/ml 10 min.

For `COc1cc(/C=C/C(=O)CC(=O)/C=C/c2ccc(O)c(OC)c2)ccc1O` [curcumin, diferuloylmethane], the “phosphorylation of STAT3 (immunocytochemistry)” value in test [1] (JMAR cells) is on record as “no inhibition of STAT3 phosphorylation was observed”. Further, in test [1] (MDA 1986LN and MDA 686LN cells), the “phosphorylation of STAT3 (immunocytochemistry)” value is recorded as “inhibited the phosphorylation of STAT3”. Also, the “translocation of STAT3 to the nucleus” value in test [2] is on record as “prevented the translocation of STAT3 to the nucleus”. The “proliferation of multiple myeloma cells” value in test [3] is “completely suppressed”. In test [4] (setting [7]), the “earliest treatment time leading to decline of IL-6-induced STAT3 phosphorylation” value amounted to 30 min and the “exposure that inhibited IL-6-induced STAT3 phosphorylation” value was determined as 2 h. In addition, the STAT3 levels entry in test [4] (curcumin pretreatment plus IL-6) is “unaffected”. In test [5], the “inhibition of proliferation of MDA 1986LN cells compared with AG490” value is “more efficiently that AG490”. Besides, the “exposure sufficient to completely suppress IL-6-induced STAT3 phosphorylation” value in test [6] (setting [7]) was determined as 4 h. In addition, in test [6] (without IL-6 (data not shown)), the “effect of curcumin alone on STAT3 phosphorylation” value was “no effect”.
